Columns and labels:
Type in all cases: in vivo, Wistar rats
diabetic rats [1] = assay: Nociceptive threshold (NCT) pain test, reversion of established diabetic neuropathy (Example 2); settings: 100 μg EGF in 1 ml i.p. 3 days a week for one month, day 120 after induction of diabetes
Experimental: The pain test, by application of an increasing pressure in the tail, was carried out at days 28 and 56 after initiation of the treatment, using 10 animals per each one of the experimental groups. NCT, expressed in grams, was determined by using an Ugo Basile type analgesimeter to apply a gradually increasing pressure to the tail of the animals until they developed a withdrawal reflex. In human diabetic neuropathy the nociceptive threshold is reduced.
(§1) The aim of this study was to evaluate the neurorestoration effect of the pharmaceutical composition. Male Wistar rats between 200-250 grams of body is weight received a subcutaneous injection of streptozotocin at 75 mg/kg in sodium citrate buffer, and were allowed to evolve until 120 days after disease induction. All rats used in this experiment had shown sustained glucose levels above 15 mmol/L. Animals were handled and fed as previously described. A concurrent control group was set, where animals received saline instead of streptozotocin. […] After this period an electrophysiological characterization of all rats were done and animals were split in two random treatment groups:
Group II. Animals received the pharmaceutical composition with 100 μg of EGF in 1 ml, 3 days a week, by intraperitoneal route. […]

sciatic nerve = assay: Histomorphometric study on fragments of the sciatic nerve, reversion study (Example 2); settings: established diabetic neuropathy, 100 μg EGF in 1 ml i.p. 3 days a week, evaluation after 30 days
Experimental: as §1
(§2) Group II. Animals received the pharmaceutical composition with 100 μg of EGF in 1 ml, 3 days a week, by intraperitoneal route.
One month after conclusion of the treatment with either EGF containing composition or saline, and […] after disease induction, animals were sacrificed by an overdose of anesthesia and perfused with saline buffer pH 7.4. A total of ten animals per experimental group were included for histomorphometric studies, and an equivalent number of rats were used for biochemical determinations. In both systems the sciatic nerves from both limbs were dissected. The procedures were similar to those described for the neuropathic damage prevention assay. Samples taken for histological and o histomorphometric studies were stained with hematoxilin/eosin and toluidine blue. At least five fragments of the same nerve were quantitatively studied using MADIP program. The fragments were included in OCT blocks, post-fixed with glutaraldehyde, and sliced horizontal and transversally. The histological indicators assessed have been described above as well as the procedures used for the processing and evaluation: • Total number of blood vessels (in epineural/perineural) in 10 microscopic fields using 10× as constant magnification in longitudinal cuts of the nerve. • Percentage of demyelinated fibers. Evaluated by averaging the values per microscopic field (×20, at least five fields). • Percentage of myelin or non-myelin fibers with lesions (dilated or distorted) per microscopic field (×20, at least five fields). • Percentage of endoneurial collagenization (moderated: 25 to 50%; severe: more than 50% of the endoneurial area in transversal slices, and at least three different sections.

[2] = tested on: Redox state in fragments from the sciatic nerve; assay: Redox profile in fragments from the sciatic nerve, prevention study (Example 1)
Experimental: Male Wistar, with 200-250 grams of body weight, received a subcutaneous injection of streptozotocin, at 75 mg/kg in sodium citrate buffer. Water was then replaced by a 10% sucrose solution during the next 24 h, to prevent deaths caused by hypoglycemia. Glucose levels in blood were monitored every morning during the next 72 hours after the injection. Only animals with sustained glucose values above 15 mmol/L were used. Rats were housing at 4 per cage and fed in the conventional way. A concurrent group of other 80 rats received citrate buffer without streptozotocin and was handled in a similar fashion to the diabetic group. The average value for glycemia during the 72 hours in this group was 5.87 mmol/L.
All treatments were conducted during 8 weeks, starting one week after streptozotocin injection. The composition used contained 75 μg of human recombinant EGF/ml. Several types of observations were conducted in the animals under study:
Once the treatment was concluded, animals were sacrificed at day 70 after induction of diabetes, 10 days after the last dose was given, and the analysis described above is was completed. Animals were sacrificed by an overdose of anesthesia and perfused with saline buffer pH 7.4. A total of ten animals per experimental group were included for histomorphometric studies, and an equivalent number of rats were used for biochemical determinations. In both systems the sciatic nerves from both limbs were dissected; fragments were kept at −70° C. until processed. The samples taken for histological and/or histomorphometric studies were stained with hematoxilin/eosin and toluidine blue. At least five fragments of the same nerve were quantitatively studied using MADIP program. The fragments were included in blocks of celloidine and gelatin, and those blocks were horizontal and transversally sliced. The following histological indicators were evaluated: • Total number of blood vessels (in epineural/perineural) in 10 microscopic fields using 10× as constant magnification in longitudinal cuts of the nerve. • Percentage of demyelinated fibers. Evaluated by averaging the values per microscopic field (×20, at least five fields). • Percentage of myelin or non-myelin fibers with lesions (dilated or distorted) per microscopic field (×20, at least five fields). • Percentage of endoneurial collagenization (moderated: 25 to 50%; severe: more than 50% of the endoneurial area in transversal slices, and at least three different sections.
Ten animals per experimental group were used to conduct biochemical determinations in the fragments of sciatic nerve collected. The biochemical parameters studied were the following:
Redox Profile: • Activity of total Superoxide Dismutase enzyme (tSOD). • Activity of catalase enzyme. • Intra-axonal accumulation of total hydroperoxides (HPT). • Intra-axonal accumulation of malonyldialdehyde (MDA).

diabetic rats [3] = assay: Sensory conduction velocity, reversion study (Example 2); settings: established diabetic neuropathy, 100 μg EGF in 1 ml i.p. 3 days a week for one month, day 120 after induction of diabetes
Experimental: Distal supra-maximal stimulation in the sciatic-tibial route using bipolar electrodes is was used to study motor conduction. Determination of the conduction velocity in the sensory routes was carried out by applying a stimulus at a proximal point in the tail and measure it 3 cm away.
as §1, §2
To check the effect of the pharmaceutical composition on the restoration of sensory and motor fibers the conduction velocity of an electric impulse was measured at day 120 after induction of diabetes, after treating the animals with the pharmaceutical composition or saline. […]

[4] = Treatment group 1 (once weekly i.p., 8 weeks)
[5] = Treatment group 3 (three times a week i.p., 8 weeks)

EGF containing pharmaceutical composition: Composition with human recombinant EGF: 75 μg/ml in Example 1, 100 μg in 1 ml in Example 2, given intraperitoneally
UNC (NCT test) (diabetic rats [1]): 80 ± 5 grams | % of collagenized area (sciatic nerve): 46.3 ± 9.5% | % of demyelinated fibers (sciatic nerve): 50.6 ± 12.3% | % of fibers with lesions (sciatic nerve): 52.6 ± 8.3% | No. of blood vessels (sciatic nerve; 10 microscopic fields): 86.5 ± 14.6 | Catalase activity [2, 4]: 274.60 ± 52.3 units per milligram, of protein per minute | HPT (total hydroperoxides) [2, 4]: 143.05 ± 1.98 nmol/mg of protein | MDA (malonyldialdehyde) [2, 4]: 0.24 ± 0.04 nmol/mg of protein | tSOD (total Superoxide Dismutase activity) [2, 4]: 958.17 ± 244.61 units per milligram, of protein per minute | Catalase activity [2, 5]: 37.62 ± 8.13 units per milligram, of protein per minute | HPT (total hydroperoxides) [2, 5]: 25.15 ± 1.81 nmol/mg of protein | MDA (malonyldialdehyde) [2, 5]: 0.08 ± 0.02 nmol/mg of protein | tSOD (total Superoxide Dismutase activity) [2, 5]: 2102.83 ± 112.67 units per milligram, of protein per minute | Velocity (sensitive conduction velocity, SCV) (diabetic rats [3]): 59.42 ± 3.35 m/s

Reference: patent publication US9034826B2, “Use of epidermal growth factor for the morphofunctional restoration of peripheral nerves in diabetic neuropathy” (Centro de Ingenieria Genetica y Biotecnologia, priority 2006, dated 2015)
